Reference: patent US11737462B2, “Methods for modulating plant response to environmentally-induced stress” (Howard University, priority 2012, dated 2023)
pIC50: −log10 of the molar value.

Columns and labels:
Cu/Zn SOD = assay: native gel analysis of superoxide dismutase activity in pepper leaf lysate; format: in vivo; conditions: 60 μM compound plus 250 mM NaCl, vs DMSO treated plants
Experimental: Native gel analysis was performed on a lysate prepared from the pepper plant leaves in FIG. 8. The gel is stained for detecting enzymatic activity of different isoforms of superoxide dismutase—key enzymes that detoxify the reactive oxygen species which usually develop during the stress conditions. […] Therefore, it appears that SD-29 may help detoxify the cellular reactive oxygen species generated during the salt stress conditions.

tomato plants = assay: salt-induced stress in tomato plants; format: in vivo; conditions: 60 μM compound plus 250 mM NaCl, five days, about 24° C.
Experimental: In the examples described herein, the test compounds (e.g., SD-29 or analogs thereof) were dissolved in dimethyl sulfoxide (DMSO) to provide a 20 mM concentration. Micromolar concentrations were then prepared as needed by addition to the water incubation media. Unless stated otherwise, the experimental plants were incubated with the roots immersed in the water containing the compound. The control plants received only DMSO in the same amount as that of the compound. Salt-induced stress was evaluated with tomato plants at room temperature (about 24° C.) for five days. The plants received sufficient incubation media to last through the five day experiment. Plant A received 60 μM SD-29 plus 250 mM NaCl and plant B received 250 mM NaCl (plus DMSO in the same volume as the volume of SD-29 received by plant A) in the incubation medium.

Arabidopsis leaves = assay: H2O2 accumulation in Arabidopsis leaves (DAB staining); format: in vivo, Arabidopsis thaliana; conditions: 5 μM H2O2 and DAB overnight, vs DMSO only
Experimental: Arabidopsis leaves were treated with 5 μM H2O2 and 3,3′-diaminobenzidene (DAB) with and without SD-29 overnight. A control included DMSO only (included in the same volume as SD-29). The brown spots indicate sites of accumulation of H2O2.

RACK1A = RACK1A (Arabidopsis thaliana, UniProt O24456); assay: in-vitro assay of tyrosine phosphorylation (Y248) based homodimerization of RACK1A; format: biochemical
Excerpt: A crystal structure of Arabidopsis thaliana RACK1 protein has been reported. Deducing the crystal structure of the Arabidopsis RACK1A protein highlighted the potential functional residues of the protein. Noteworthy in the structure was the functionally conserved tyrosine phosphorylation residue (Y248) that has been implicated in RACK1A function. Therefore, it was undertaken to identify a chemical inhibitor of Y248 phosphorylation that would serve as a potential “anti-stress” compound in countering environmental stresses in plants. In order to identify small compounds occupying the Y248 pocket, docking simulations with a subset of 30,000 compounds were performed. Based on ranking with an energy cut-off of 25 kcal/mol, 3,011 compounds were then selected. Upon further re-ranking, 46 lead compounds were identified and 11 compounds were screened for their efficacy in an in-vitro assay. […] Those six compounds include SD-29, SD-29-9, SD-29-11, SD-29-22, SD-34, and SD-125.

Arabidopsis protoplasts = assay: H2O2-induced reactive oxygen species in Arabidopsis protoplasts (H2DCF staining); format: cell-based, Arabidopsis thaliana; conditions: H2O2 for 2 hours, 60 μM compound, H2DCF dye
Experimental: In this example, to examine whether SD-29 can prevent generation of reactive oxygen species (ROS) under stress, the effect of SD-29 on H2O2 treated Arabidopsis protoplasts was evaluated. Protoplasts were treated with H2O2 for 2 hours with and without 60 μM SD-29. An untreated control was also evaluated. The protoplasts were stained with reactive oxygen species visualization dye H2DCF that fluoresces in the presence of ROS and the treated protoplasts were evaluated using fluorescent microscopy.

rice detached leaves = assay: salt-induced stress in rice detached leaves; format: in vivo; conditions: seven days
Experimental: In the examples described herein, the test compounds (e.g., SD-29 or analogs thereof) were dissolved in dimethyl sulfoxide (DMSO) to provide a 20 mM concentration. Micromolar concentrations were then prepared as needed by addition to the water incubation media. Unless stated otherwise, the experimental plants were incubated with the roots immersed in the water containing the compound. The control plants received only DMSO in the same amount as that of the compound. The effect of SD-29 on modulating salt-induced stress was evaluated with rice detached leaves at room temperature (about 24° C.) for seven days in a water incubation medium. All plants received sufficient incubation medium to last the seven days. Plant A (left most) received 250 mM NaCl plus DMSO, Plant B (right of Plant A) received 60 μM SD-29 and 250 mM NaCl, and plant D received 60 μM SD-29 in the incubation medium. The incubation medium of Plant C was untreated. The rice plant leaves were photographed directly after seven days. […] Much of the chlorophyll of plant A (salt treatment alone) was degraded, while SD-29 treated leaves (Leaf B) maintained the chlorophyll level even in the presence of the same amount of salt.

chloroplastic Cu—Zn SOD = assay: native gel assay of SOD activity in rice leaves; format: in vivo; conditions: set up as FIG. 5: 60 μM compound, 250 mM NaCl; wild-type and RACK1 over-expressing (OX) rice
Experimental: Native gel analysis was performed on a lysate prepared from the pepper plant leaves in FIG. 8. The gel is stained for detecting enzymatic activity of different isoforms of superoxide dismutase—key enzymes that detoxify the reactive oxygen species which usually develop during the stress conditions. […] Therefore, it appears that SD-29 may help detoxify the cellular reactive oxygen species generated during the salt stress conditions. The wild-type rice plants were compared to a rice plant over-expressing rice RACK1 protein (referred to as “OX”). The OX plants were treated as described in this example for the wild-type rice plant. Native gel assay was performed as described for FIG. 8 and the experimental set up was exactly the same as described for FIG. 5.

Arabidopsis plants = assay: salt stress (150 mM salt) in Arabidopsis plants; format: in vivo, Arabidopsis thaliana; conditions: 100 μM compound plus 150 mM salt, two weeks, 22° C., vs DMSO plus salt
Experimental: In the examples described herein, the test compounds (e.g., SD-29 or analogs thereof) were dissolved in dimethyl sulfoxide (DMSO) to provide a 20 mM concentration. Micromolar concentrations were then prepared as needed by addition to the water incubation media. Unless stated otherwise, the experimental plants were incubated with the roots immersed in the water containing the compound. The control plants received only DMSO in the same amount as that of the compound. In the first experiment, Arabidopsis plants were treated with 150 mM salt for two weeks. One plant in each group was treated with 100 μM SD-29 plus 150 mM salt and the other plant in each group was treated with DMSO plus 150 mM salt. […] The plants were treated with the indicated treatment twice during the experiment.

Sequence of RACK1A (O24456 whole entry): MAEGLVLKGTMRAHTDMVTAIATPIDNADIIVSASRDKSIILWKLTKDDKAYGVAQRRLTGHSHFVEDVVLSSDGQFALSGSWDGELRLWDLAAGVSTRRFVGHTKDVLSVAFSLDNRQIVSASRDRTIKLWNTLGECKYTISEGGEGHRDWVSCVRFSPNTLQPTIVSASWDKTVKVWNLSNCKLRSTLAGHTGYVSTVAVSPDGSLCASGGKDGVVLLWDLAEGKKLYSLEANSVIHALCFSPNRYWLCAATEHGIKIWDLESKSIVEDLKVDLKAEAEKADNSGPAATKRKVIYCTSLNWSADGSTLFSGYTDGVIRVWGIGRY

With `Nn1c(S)nnc1-c1ccc(F)cc1` [SD-29] as the molecule, how does the “cytoplasmic and chloroplastic Cu/Zn SOD enzyme activities in pepper leaves” value (Cu/Zn SOD) read?
Its value is “caused upregulation of both the cytoplasmic (lower band) and chloroplastic (upper band) Cu/Zn SOD enzyme activities”.

What about the “tomato plant condition in high salt” value (tomato plants) of the same molecule?
The value was “thrived (did not wilt) in the high salt conditions”.

And the “H2O2 accumulation in leaves” value (Arabidopsis leaves)?
Its value is “prevents H2O2 accumulation in the leaves”.

And the pIC50 (RACK1A; data not shown)?
The pIC50 was 4.90.

What about the “tyrosine phosphorylation (Y248) based homodimerization of RACK1A proteins” value (RACK1A; in-vitro assay) of the same molecule?
The value was “prevent tyrosine phosphorylation (Y248) based homodimerization of RACK1A proteins”.

And the “accumulation of H2O2-induced reactive oxygen species in protoplasts” value (Arabidopsis protoplasts)?
Its value is “prevented accumulation of H2O2-induced reactive oxygen species”.

What about the “salt stress-induced chlorosis of rice leaves” value (rice detached leaves; 60 μM compound and 250 mM NaCl, about 24° C.) of the same molecule?
Its value is “protect the rice leaves from salt stress-induced chlorosis”.

And the “rice leaf appearance with compound alone” value (rice detached leaves; 60 μM compound without salt, vs untreated Leaf C)?
The value was “showed little difference from control Leaf C”.

What about the “chloroplastic Cu—Zn SOD activity in rice leaves” value (chloroplastic Cu—Zn SOD) of the same molecule?
Its value is “upregulates chloroplastic Cu—Zn SOD activity”.

And the “salt stress induced chlorosis of Arabidopsis plants” value (Arabidopsis plants)?
The value was “effective to allow the Arabidopsis plants to withstand the salt stress induced chlorosis”.
